Laboratory results published in US20250313572A1, “MACROCYCLIC MCL-1 INHIBITORS AND METHODS OF USE” (AbbVie Inc., priority 2017, published 2025).
pKi: −log10 of the molar value. Where two headings read alike, the source gives them in different places.

Legend:
[1] = biological target: GST-MCL-1 (Homo sapiens, UniProt Q07820); assay: TR-FRET MCL-1 binding assay (competition with probe F-Bak); conditions: for Ki: MCL-1 Binding Ki (nM, 10% HS), in the presence of 10% HS (human serum); for pKi: without HS, read-out: MCL-1 Binding Ki
Sequence of GST-MCL-1 (Q07820 whole entry): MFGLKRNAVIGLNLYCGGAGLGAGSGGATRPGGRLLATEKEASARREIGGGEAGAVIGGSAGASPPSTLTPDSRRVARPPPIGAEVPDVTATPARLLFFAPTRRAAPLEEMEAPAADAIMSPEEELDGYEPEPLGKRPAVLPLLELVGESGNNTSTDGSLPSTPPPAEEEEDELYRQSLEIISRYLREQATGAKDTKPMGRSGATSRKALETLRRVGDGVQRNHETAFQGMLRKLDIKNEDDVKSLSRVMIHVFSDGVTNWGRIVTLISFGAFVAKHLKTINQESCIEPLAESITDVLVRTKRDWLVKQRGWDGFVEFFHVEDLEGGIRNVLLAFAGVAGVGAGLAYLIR
Protocol: Tb-anti-GST antibody was purchased from Invitrogen (Catalog No. PV4216).
For the assay, an acoustic dispenser was used to prepare dilution series from 10 mM test compounds in 100% DMSO and directly transfer 160 nL into low volume 384-well assay plates. 8 μL of a protein/probe/antibody mix was then added to each well resulting in final concentrations listed below: • Test compound: 11 three-fold dilutions beginning at 25 μM
The samples were then mixed on a shaker for 1 minute and incubated for an additional 2 hours at room temperature. For each assay plate, a probe/antibody and protein/antibody/probe mixture were included as a negative and a positive control, respectively. Fluorescence was measured on the Envision (Perkin Elmer) using a 340/35 nm excitation filter and 520/525 (F-Bak) and 495/510 nm (Tb-labeled anti-his antibody) emission filters. […] The TR-FRET assay can be performed in the presence of varying concentrations of human serum (HS) or fetal bovine serum (FBS). Compounds were tested both without HS and in the presence of 10% HS.

[2] = test system: AMO-1 human multiple myeloma tumor cell line; assay: AMO-1 cell viability assay (CellTiter-Glo, 24 hours); type: cell-based
[3] = test system: NCI-H929 human multiple myeloma tumor cell line; assay: NCI-H929 cell viability assay (CellTiter-Glo, 24 hours); type: cell-based
[4] = Homo sapiens, AMO1, 24 h, read-out: AMO-1 Viability IC50 (μM, 10% FBS), 10% FBS, 24 hours of compound treatment
[5] = Homo sapiens, NCI-H929, 24 h, read-out: H929 Viability IC50 (μM, 10% FBS), 10% FBS, 24 hours of compound treatment
[6] = read-out: AMO-1 Viability IC50 (μM, 10% FBS), 10% FBS, 24 hours of compound treatment
[7] = read-out: H929 Viability IC50 (μM, 10% FBS), 10% FBS, 24 hours of compound treatment

Compound	Ki [1] [nM]	pKi [1]	IC50 [2, 4] [µM]	IC50 [3, 5] [µM]	IC50 [2, 6] [µM]	IC50 [3, 7] [µM]
COCCOCCOCCOc1ccccc1-c1nccc(COc2ccc3cc2C[C@@H](C(=O)O)Oc2ncnc4sc(-c5ccc(F)cc5)c(c24)-c2ccc(c(Cl)c2C)O[C@H](CN2CCN(C)CC2)CO3)n1 (atropisomer, axis not shown) [Example 2, (7S,16R,21S)-19-chloro-1-(4-fluorophenyl)-10-{[2-(2-{2-[2-(2-methoxyethoxy)ethoxy]ethoxy}phenyl)pyrimidin-4-yl]methoxy}-20-methyl-16-[(4-methylpiperazin-1-yl)methyl]-7,8,15,16-tetrahydro-18,21-etheno-9,13-(metheno)-6,14,17-trioxa-2-thia-3,5-diazacyclononadeca[1,2,3-cd]indene-7-carboxylic Acid]	76	8.39	0.21	0.276	–	–
COCCOCCOCCOc1ccc(-c2nccc(COc3ccc4cc3C[C@H](C(=O)O)Oc3ncnc5sc(-c6ccc(F)cc6)c(c35)-c3ccc(c(Cl)c3C)O[C@H](CN3CCN(C)CC3)CO4)n2)cc1 (atropisomer, axis not shown) [Example 13, (7R,16R,21S)-19-chloro-1-(4-fluorophenyl)-10-{[2-(4-{2-[2-(2-methoxyethoxy)ethoxy]ethoxy}phenyl)pyrimidin-4-yl]methoxy}-20-methyl-16-[(4-methylpiperazin-1-yl)methyl]-7,8,15,16-tetrahydro-18,21-etheno-13,9-(metheno)-6,14,17-trioxa-2-thia-3,5-diazacyclononadeca[1,2,3-cd]indene-7-carboxylic Acid]	0.251	10.27	0.00046	0.001	–	–
Cc1c2ccc(c1Cl)O[C@H](CN1CCN(C)CC1)COc1ccc(OCc3ccnc(-c4ccc(CCC(=O)O)cc4)n3)c(c1)C[C@H](C(=O)O)Oc1ncnc3sc(-c4ccc(F)cc4)c-2c13 (atropisomer, axis not shown) [Example 17, (7R,16R,21S)-10-({2-[4-(2-carboxyethyl)phenyl]pyrimidin-4-yl}methoxy)-19-chloro-1-(4-fluorophenyl)-20-methyl-16-[(4-methylpiperazin-1-yl)methyl]-7,8,15,16-tetrahydro-18,21-etheno-13,9-(metheno)-6,14,17-trioxa-2-thia-3,5-diazacyclononadeca[1,2,3-cd]indene-7-carboxylic Acid]	0.246	10.82	0.0155	0.0298	–	–
Cc1c2ccc(c1Cl)O[C@H](CN1CCN(C)CC1)COc1ccc(OCc3ccnc(-c4ccc(OC[C@H](O)CO)cc4)n3)c(c1)C[C@H](C(=O)O)Oc1ncnc3sc(-c4ccc(F)cc4)c-2c13 (atropisomer, axis not shown) [Example 18, (7R,16R,21S)-19-chloro-10-[(2-{4-[(2R)-2,3-dihydroxypropoxy]phenyl}pyrimidin-4-yl)methoxy]-1-(4-fluorophenyl)-20-methyl-16-[(4-methylpiperazin-1-yl)methyl]-7,8,15,16-tetrahydro-18,21-etheno-13,9-(metheno)-6,14,17-trioxa-2-thia-3,5-diazacyclononadeca[1,2,3-cd]indene-7-carboxylic Acid]	0.269	10.96	0.00295	0.00531	–	–
Cc1c2ccc(c1Cl)O[C@H](CN1CCN(C)CC1)COc1ccc(OCc3ccnc(-c4ccccc4C(=O)O)n3)c(c1)C[C@H](C(=O)O)Oc1ncnc3sc(-c4ccc(F)cc4)c-2c13 (atropisomer, axis not shown) [Example 19, (7R,16R)-10-{[2-(2-carboxyphenyl)pyrimidin-4-yl]methoxy}-19-chloro-1-(4-fluorophenyl)-20-methyl-16-[(4-methylpiperazin-1-yl)methyl]-7,8,15,16-tetrahydro-18,21-etheno-13,9-(metheno)-6,14,17-trioxa-2-thia-3,5-diazacyclononadeca[1,2,3-cd]indene-7-carboxylic Acid]	0.069	11.22	0.0963	0.365	–	–
COCCOCCOCCC1CCN(C[C@@H]2COc3ccc(OCc4ccnc(-c5ccccc5OC)n4)c(c3)C[C@H](C(=O)O)Oc3ncnc4sc(-c5ccc(F)cc5)c(c34)-c3ccc(c(Cl)c3C)O2)CC1 (atropisomer, axis not shown) [Example 21, (7R,16R,21S)-19-chloro-1-(4-fluorophenyl)-16-[(4-{2-[2-(2-methoxyethoxy)ethoxy]ethyl}piperidin-1-yl)methyl]-10-{[2-(2-methoxyphenyl)pyrimidin-4-yl]methoxy}-20-methyl-7,8,15,16-tetrahydro-18,21-etheno-13,9-(metheno)-6,14,17-trioxa-2-thia-3,5-diazacyclononadeca[1,2,3-cd]indene-7-carboxylic Acid]	0.556	10.23	–	–	0.0143	0.0102
Cc1c2ccc(c1Cl)O[C@H](CN1CCN(C)CC1)COc1ccc(OCc3ccnc(-c4ccccc4OCC(=O)O)n3)c(c1)C[C@H](C(=O)O)Oc1ncnc3sc(-c4ccc(F)cc4)c-2c13 (atropisomer, axis not shown) [Example 24, (7R,16R,21S)-10-({2-[2-(carboxymethoxy)phenyl]pyrimidin-4-yl}methoxy)-19-chloro-1-(4-fluorophenyl)-20-methyl-16-[(4-methylpiperazin-1-yl)methyl]-7,8,15,16-tetrahydro-18,21-etheno-13,9-(metheno)-6,14,17-trioxa-2-thia-3,5-diazacyclononadeca[1,2,3-cd]indene-7-carboxylic Acid]	0.098	10.82	0.0385	0.157	–	–
COCCOCCOCCC1CCN(C[C@@H]2COc3ccc(OCc4ccnc(-c5ccccc5OC)n4)c(c3)C[C@H](C(=O)O)Oc3ncnc4sc(-c5ccc(F)cc5)c(c34)-c3ccc(c(Cl)c3C)O2)CC1 (atropisomer, axis not shown) [Example 27, (7R,16R,21R)-19-chloro-1-(4-fluorophenyl)-16-[(4-{2-[2-(2-methoxyethoxy)ethoxy]ethyl}piperidin-1-yl)methyl]-10-{[2-(2-methoxyphenyl)pyrimidin-4-yl]methoxy}-20-methyl-7,8,15,16-tetrahydro-18,21-etheno-13,9-(metheno)-6,14,17-trioxa-2-thia-3,5-diazacyclononadeca[1,2,3-cd]indene-7-carboxylic Acid]	22	9.01	–	–	0.314	0.319
COCCOCCOCCOCCOC[C@@H]1CCCC[C@H]1c1nccc(COc2ccc3cc2C[C@H](C(=O)O)Oc2ncnc4sc(-c5ccc(F)cc5)c(c24)-c2c(C)c(Cl)c(c(Cl)c2C)O[C@H](CN2CCN(C)CC2)CO3)n1 (relative stereo) [Example 120, (7R,16R)-19,23-dichloro-1-(4-fluorophenyl)-20,22-dimethyl-16-[(4-methylpiperazin-1-yl)methyl]-10-({2-[(1R*,2R*)-2-(2,5,8,11,14-pentaoxapentadecan-1-yl)cyclohexyl]pyrimidin-4-yl}methoxy)-7,8,15,16-tetrahydro-18,21-etheno-13,9-(metheno)-6,14,17-trioxa-2-thia-3,5-diazacyclononadeca[1,2,3-cd]indene-7-carboxylic Acid]	–	7.58	0.000231	0.000386	–	–
Cc1c(Cl)c2c(Cl)c(C)c1-c1c(-c3ccc(F)cc3)sc3ncnc(c13)O[C@@H](C(=O)O)Cc1cc(ccc1OCc1ccnc(OC[C@@H]3CN(C)CCCO3)n1)OC[C@@H](CN1CCN(C)CC1)O2 [Example 177, (7R,16R)-19,23-dichloro-1-(4-fluorophenyl)-20,22-dimethyl-10-[(2-{[(2S)-4-methyl-1,4-oxazepan-2-yl]methoxy}pyrimidin-4-yl)methoxy]-16-[(4-methylpiperazin-1-yl)methyl]-7,8,15,16-tetrahydro-18,21-etheno-13,9-(metheno)-6,14,17-trioxa-2-thia-3,5-diazacyclononadeca[1,2,3-cd]indene-7-carboxylic Acid]	–	–	0.00422	0.00929	–	–
COCCOCCOc1ccc(-c2ccccc2OC)nc1COc1ccc2cc1C[C@H](C(=O)O)Oc1ncnc3sc(-c4ccc(F)cc4)c(c13)-c1c(C)c(Cl)c(c(Cl)c1C)O[C@H](CN1CCN(C)CC1)CO2 [Example 178, (7R,16R)-19,23-dichloro-1-(4-fluorophenyl)-10-({3-[2-(2-methoxyethoxy)ethoxy]-6-(2-methoxyphenyl)pyridin-2-yl}methoxy)-20,22-dimethyl-16-[(4-methylpiperazin-1-yl)methyl]-7,8,15,16-tetrahydro-18,21-etheno-9,13-(metheno)-6,14,17-trioxa-2-thia-3,5-diazacyclononadeca[1,2,3-cd]indene-7-carboxylic Acid]	–	–	0.152	0.37	–	–
